Experimental data taken from patent publication US12077503B2, “Substituted cyclic amides and their use as herbicides” (FMC CORPORATION, priority 2015, dated 2024).

Tests used:
Type in all cases: in vivo
[1] = tested on: redroot pigweed (Amaranthus retroflexus); assay: Test G Post-Emergence Protocol; settings: Amaranthus retroflexus, post-emergence, 312 h; for pest or weed control at 15.625 g/ha: 15.625 g ai/ha, evaluated after 13 days (100=total damage to plant; 0=no damage to plant), read-out: Pigweed, Redroot damage rating; for pest or weed control at 62.5 g/ha: 62.5 g ai/ha, read-out: Pigweed, Redroot damage rating (100=total damage to plant; 0=no damage to plant); for pest or weed control at 62.5 g/ha / pest or weed control at 250 g/ha: evaluated after 13 days; for pest or weed control at 250 g/ha: 250 g ai/ha, read-out: damage to plant, Pigweed, Redroot (100=total damage to plant; 0=no damage to plant)
In short: (§1)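 Damage was rated 13 days after treatment from 0 (none) to 100 (plant killed). Compound was applied as a spray at 15.625, 62.5 or 250 g/ha in 50:50 acetone/water containing 0.5% Tween 20, onto 8-day-old potted plants kept in a glasshouse (24/16 °C, 14 h light, 65% humidity).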

[2] = tested on: velvetleaf (Abutilon theophrasti); assay: Test G Post-Emergence Protocol; settings: Abutilon theophrasti, post-emergence, 312 h; for pest or weed control at 15.625 g/ha: 15.625 g ai/ha, evaluated after 13 days (100=total damage to plant; 0=no damage to plant), read-out: Velvetleaf damage rating; for pest or weed control at 62.5 g/ha: 62.5 g ai/ha, read-out: Velvetleaf damage rating (100=total damage to plant; 0=no damage to plant); for pest or weed control at 62.5 g/ha / pest or weed control at 250 g/ha: evaluated after 13 days; for pest or weed control at 250 g/ha: 250 g ai/ha, read-out: damage to plant, Velvetleaf (100=total damage to plant; 0=no damage to plant)
In short: as §1

corn (Zea mays) [3] = assay: Test G Post-Emergence Protocol; settings: Zea mays, post-emergence, 312 h; for plant injury at 15.625 g/ha: 15.625 g ai/ha, evaluated after 13 days (100=total damage to plant; 0=no damage to plant), read-out: Corn damage rating; for plant injury at 62.5 g/ha: 62.5 g ai/ha, read-out: Corn damage rating (100=total damage to plant; 0=no damage to plant); for plant injury at 62.5 g/ha / plant injury at 250 g/ha: evaluated after 13 days; for plant injury at 250 g/ha: 250 g ai/ha, read-out: damage to plant, Corn (100=total damage to plant; 0=no damage to plant)
In short: as §1

[4] = tested on: barnyardgrass (Echinochloa crus-galli); assay: Test G Post-Emergence Protocol; settings: Echinochloa crus-galli, post-emergence, 312 h; for pest or weed control at 15.625 g/ha: 15.625 g ai/ha, evaluated after 13 days (100=total damage to plant; 0=no damage to plant), read-out: Barnyardgrass damage rating; for pest or weed control at 62.5 g/ha: 62.5 g ai/ha, read-out: Barnyardgrass damage rating (100=total damage to plant; 0=no damage to plant); for pest or weed control at 62.5 g/ha / pest or weed control at 250 g/ha: evaluated after 13 days; for pest or weed control at 250 g/ha: 250 g ai/ha, read-out: damage to plant, Barnyardgrass (100=total damage to plant; 0=no damage to plant)
In short: as §1

[5] = tested on: giant foxtail (Setaria faberi); assay: Test G Post-Emergence Protocol; settings: Setaria faberi, post-emergence, 312 h; for pest or weed control at 15.625 g/ha: 15.625 g ai/ha, evaluated after 13 days (100=total damage to plant; 0=no damage to plant), read-out: Foxtail, Giant damage rating; for pest or weed control at 62.5 g/ha: 62.5 g ai/ha, read-out: Foxtail, Giant damage rating (100=total damage to plant; 0=no damage to plant); for pest or weed control at 62.5 g/ha / pest or weed control at 250 g/ha: evaluated after 13 days; for pest or weed control at 250 g/ha: 250 g ai/ha, read-out: damage to plant, Foxtail, Giant (100=total damage to plant; 0=no damage to plant)
In short: as §1

[6] = tested on: ivy-leaved morning glory (Ipomoea hederacea); assay: Test G Post-Emergence Protocol; settings: Ipomoea, post-emergence, 312 h; for pest or weed control at 15.625 g/ha: 15.625 g ai/ha, evaluated after 13 days (100=total damage to plant; 0=no damage to plant), read-out: Morningglory, Ivy-leaved damage rating; for pest or weed control at 62.5 g/ha: 62.5 g ai/ha, read-out: Morningglory, Ivy-leaved damage rating (100=total damage to plant; 0=no damage to plant); for pest or weed control at 62.5 g/ha / pest or weed control at 250 g/ha: evaluated after 13 days; for pest or weed control at 250 g/ha: 250 g ai/ha, read-out: damage to plant, Morningglory, Ivy-leaved (100=total damage to plant; 0=no damage to plant)
In short: as §1

[7] = tested on: redroot pigweed (Amaranthus retroflexus); assay: Test G Pre-Emergence Protocol; settings: Amaranthus retroflexus, pre-emergence, 312 h, evaluated after 13 days; for pest or weed control at 15.625 g/ha: 15.625 g ai/ha; for pest or weed control at 15.625 g/ha / pest or weed control at 250 g/ha: read-out: Pigweed, Redroot damage rating (100=total damage to plant; 0=no damage to plant); for pest or weed control at 62.5 g/ha: 62.5 g ai/ha, 100=total damage to plant, 0=no damage to plant, read-out: plant damage rating, Pigweed, Redroot; for pest or weed control at 250 g/ha: 250 g ai/ha
In short: (§2)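 Pots of seeds in standard soil were grown for one day in a glasshouse (24/16 °C day/night, 14 h light, 65% humidity), then sprayed with compound in acetone/water 50:50 with 0.5% Tween 20 at 15.625, 62.5 or 250 g/ha. Damage was scored after 13 days on a 0 (none) to 100 (total) scale.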

[8] = tested on: velvetleaf (Abutilon theophrasti); assay: Test G Pre-Emergence Protocol; settings: Abutilon theophrasti, pre-emergence, 312 h, evaluated after 13 days; for pest or weed control at 15.625 g/ha: 15.625 g ai/ha; for pest or weed control at 15.625 g/ha / pest or weed control at 250 g/ha: read-out: Velvetleaf damage rating (100=total damage to plant; 0=no damage to plant); for pest or weed control at 62.5 g/ha: 62.5 g ai/ha, 100=total damage to plant, 0=no damage to plant, read-out: plant damage rating, Velvetleaf; for pest or weed control at 250 g/ha: 250 g ai/ha
In short: as §2

corn (Zea mays) [9] = assay: Test G Pre-Emergence Protocol; settings: Zea mays, pre-emergence, 312 h, evaluated after 13 days; for plant injury at 15.625 g/ha: 15.625 g ai/ha; for plant injury at 15.625 g/ha / plant injury at 250 g/ha: read-out: Corn damage rating (100=total damage to plant; 0=no damage to plant); for plant injury at 62.5 g/ha: 62.5 g ai/ha, 100=total damage to plant, 0=no damage to plant, read-out: plant damage rating, Corn; for plant injury at 250 g/ha: 250 g ai/ha
In short: as §2

[10] = tested on: barnyardgrass (Echinochloa crus-galli); assay: Test G Pre-Emergence Protocol; settings: Echinochloa crus-galli, pre-emergence, 312 h, evaluated after 13 days; for pest or weed control at 15.625 g/ha: 15.625 g ai/ha, read-out: Barnyard grass damage rating (100=total damage to plant; 0=no damage to plant); for pest or weed control at 62.5 g/ha: 62.5 g ai/ha, 100=total damage to plant, 0=no damage to plant, read-out: plant damage rating, Barnyardgrass; for pest or weed control at 250 g/ha: 250 g ai/ha, read-out: Barnyardgrass damage rating (100=total damage to plant; 0=no damage to plant)
In short: as §2

[11] = tested on: giant foxtail (Setaria faberi); assay: Test G Pre-Emergence Protocol; settings: Setaria faberi, pre-emergence, 312 h, evaluated after 13 days; for pest or weed control at 15.625 g/ha: 15.625 g ai/ha; for pest or weed control at 15.625 g/ha / pest or weed control at 250 g/ha: read-out: Foxtail, Giant damage rating (100=total damage to plant; 0=no damage to plant); for pest or weed control at 62.5 g/ha: 62.5 g ai/ha, 100=total damage to plant, 0=no damage to plant, read-out: plant damage rating, Foxtail, Giant; for pest or weed control at 250 g/ha: 250 g ai/ha
In short: as §2

[12] = tested on: ivy-leaved morning glory (Ipomoea hederacea); assay: Test G Pre-Emergence Protocol; settings: Ipomoea, pre-emergence, 312 h, evaluated after 13 days; for pest or weed control at 62.5 g/ha: 62.5 g ai/ha, 100=total damage to plant, 0=no damage to plant, read-out: plant damage rating, Morningglory, Ivy-leaved; for pest or weed control at 250 g/ha: 250 g ai/ha, read-out: Morningglory, Ivy-leaved damage rating (100=total damage to plant; 0=no damage to plant)
In short: as §2

Compound	pest or weed control at 15.625 g/ha [1] [%]	pest or weed control at 62.5 g/ha [1] [%]	pest or weed control at 250 g/ha [1] [%]	pest or weed control at 15.625 g/ha [2] [%]	pest or weed control at 62.5 g/ha [2] [%]	pest or weed control at 250 g/ha [2] [%]	plant injury at 15.625 g/ha (corn (Zea mays) [3]) [%]	plant injury at 62.5 g/ha (corn (Zea mays) [3]) [%]	plant injury at 250 g/ha (corn (Zea mays) [3]) [%]	pest or weed control at 15.625 g/ha [4] [%]	pest or weed control at 62.5 g/ha [4] [%]	pest or weed control at 250 g/ha [4] [%]	pest or weed control at 15.625 g/ha [5] [%]	pest or weed control at 62.5 g/ha [5] [%]	pest or weed control at 250 g/ha [5] [%]	pest or weed control at 15.625 g/ha [6] [%]	pest or weed control at 62.5 g/ha [6] [%]	pest or weed control at 250 g/ha [6] [%]	pest or weed control at 15.625 g/ha [7] [%]	pest or weed control at 62.5 g/ha [7] [%]	other results
CN1C[C@@H](c2ccc(C(F)(F)F)cc2)[C@H](C(=O)Nc2ccccc2Cl)C1=O (racemic) [Compound 1598]	30	50	70	0	20	50	0	40	60	30	80	70	80	80	80	30	60	70	10	40	pest or weed control at 250 g/ha [7]: 50%; pest or weed control at 15.625 g/ha [8]: 0%; pest or weed control at 62.5 g/ha [8]: 10%; pest or weed control at 250 g/ha [8]: 60%; plant injury at 15.625 g/ha (corn (Zea mays) [9]): 0%; plant injury at 62.5 g/ha (corn (Zea mays) [9]): 10%; plant injury at 250 g/ha (corn (Zea mays) [9]): 70%; pest or weed control at 15.625 g/ha [10]: 0%; pest or weed control at 62.5 g/ha [10]: 70%; pest or weed control at 250 g/ha [10]: 80%; pest or weed control at 15.625 g/ha [11]: 60%; pest or weed control at 62.5 g/ha [11]: 80%; pest or weed control at 250 g/ha [11]: 90%; pest or weed control at 15.625 g/ha ([12]; 15.625 g ai/ha, read-out: Morning-glory, Ivy-leaved damage rating (100=total damage to plant; 0=no damage to plant)): 10%; pest or weed control at 62.5 g/ha [12]: 20%; pest or weed control at 250 g/ha [12]: 40%
CN1C[C@@H](c2ccc(C(F)(F)F)cc2)[C@H](C(=O)Nc2ccc(F)nc2)C1=O (racemic) [Compound 1555]	0	0	20	0	0	10	0	10	0	0	0	40	0	0	50	0	10	50	40	30	pest or weed control at 250 g/ha [7]: 70%; pest or weed control at 15.625 g/ha [8]: 0%; pest or weed control at 62.5 g/ha [8]: 0%; pest or weed control at 250 g/ha [8]: 0%; plant injury at 15.625 g/ha (corn (Zea mays) [9]): 0%; plant injury at 62.5 g/ha (corn (Zea mays) [9]): 0%; plant injury at 250 g/ha (corn (Zea mays) [9]): 20%; pest or weed control at 15.625 g/ha [10]: 0%; pest or weed control at 62.5 g/ha [10]: 20%; pest or weed control at 250 g/ha [10]: 70%; pest or weed control at 15.625 g/ha [11]: 0%; pest or weed control at 62.5 g/ha [11]: 30%; pest or weed control at 250 g/ha [11]: 70%; pest or weed control at 62.5 g/ha [12]: 0%; pest or weed control at 250 g/ha [12]: 0%
